Test results published in PMC7531004, “Discovery of gramicidin A analogues with altered activities by multidimensional screening of a one-bead-one-compound library” (Nature Communications, 2020).
Where a SMILES comes first, the peptide text is derived from it. [ ]: non-standard residue; d: D form. The star is where a group is joined. NHCH2CH2OH = OCCN*; For = O=C*

Key:
[1] = tested on: P388 mouse leukemia cells; settings: 92 h
In short: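 First, library peptide stocks are diluted 250-fold in RPMI1640 with 10% heat-inactivated FBS. Next, they are mixed with P388 cells to give 1 × 10^4 cells/mL and incubated 92 h at 37 °C, 5% CO2. Finally, viability (%) is scored by WST-1 absorbance at 415 nm.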

[2] = tested on: Streptococcus pyogenes SSI-9; assay: Antibacterial activity assay of bead-derived peptides (three concentrations); format: cell-based; parameters: key: +++: inhibition by the 640-fold diluted peptide solution; ++: inhibition by the 160-fold diluted solution; +: inhibition by the 40-fold diluted solution; -: no inhibition; settings: S. pyogenes, bead-derived peptide solution, three concentrations
In short: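 Three stock dilutions per peptide (none, 4-fold, 16-fold in DMSO) are screened in 96-well format. The medium is blood-supplemented cation-adjusted MHB, inoculated with 2 × 10^5 CFU S. pyogenes SSI-9. Growth is read as cell precipitation at 18 h, 37 °C.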

[3] = H+/Na+ transport assay of bead-derived peptides (one-point); format: biochemical; parameters: key: relative activity; mean of two control wells = 1.00; settings: bead-derived peptide solution, EYPC/EYPG LUVs;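 note: relative to parent gramicidin A activity set to 1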
In short: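 Miniaturized 96-well format. LUVs with entrapped pyranine (1.0 mM) were exposed to peptide for 30 min at RT. Intensities were expressed relative to full lysis by Triton X-100 and no treatment, with control-well mean = 1.00.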

With `CC(C)C[C@@H](NC(=O)[C@H](Cc1c[nH]c2ccccc12)NC(=O)[C@H](NC(=O)[C@H](Cc1c[nH]c2ccccc12)NC(=O)[C@H](NC(=O)[C@H](Cc1c[nH]c2ccccc12)NC(=O)[C@H](NC(=O)[C@@H](NC(=O)[C@H](NC(=O)[C@H](C)NC(=O)[C@H](NC(=O)[C@H](C)NC(=O)CNC(=O)[C@@H](NC=O)C(C)C)C(C)C)C(C)C)C(C)C)C(C)C)C(C)C)C(C)C)C(=O)N[C@@H](Cc1c[nH]c2ccccc12)C(=O)NCCO` [compound 2182] (For-VGA[dV]A[dV]V[dV]W[dV]W[dV]W[dL]W-NHCH2CH2OH) the cell viability/% [1] was 100.0%, the antibacterial activity [2] was “++” and the “H+/Na+ transport activity normalized against the value of 1 (1.00)” value (shortened to “H+/Na+ transport activity normalized”) [3] was 1.28.

In the case of `CC(C)C[C@@H](NC(=O)[C@H](C)NC(=O)CNC(=O)[C@@H](NC=O)C(C)C)C(=O)N[C@@H](C)C(=O)N[C@H](CC(C)C)C(=O)N[C@H](C(=O)N[C@H](CC(C)C)C(=O)N[C@@H](Cc1c[nH]c2ccccc12)C(=O)N[C@H](CC(C)C)C(=O)N[C@@H](Cc1c[nH]c2ccccc12)C(=O)N[C@H](CC(C)C)C(=O)N[C@@H](Cc1c[nH]c2ccccc12)C(=O)N[C@@H](C(=O)N[C@@H](Cc1c[nH]c2ccccc12)C(=O)NCCO)C(C)C)C(C)C` [compound 2205] (For-VGA[dL]A[dL]V[dL]W[dL]W[dL]W[dV]W-NHCH2CH2OH), the cell viability/% [1] is reported as 0.0%, the antibacterial activity [2] is reported as “-” and the “H+/Na+ transport activity normalized” value [3] is reported as 1.01.

In the case of `CC(C)C[C@@H](NC(=O)[C@H](C)NC(=O)[C@H](NC(=O)[C@H](C)NC(=O)CNC(=O)[C@@H](NC=O)C(C)C)C(C)C)C(=O)N[C@H](C(=O)N[C@H](CC(C)C)C(=O)N[C@@H](Cc1c[nH]c2ccccc12)C(=O)N[C@@H](C(=O)N[C@@H](Cc1c[nH]c2ccccc12)C(=O)N[C@@H](C(=O)N[C@@H](Cc1c[nH]c2ccccc12)C(=O)N[C@@H](C(=O)N[C@@H](Cc1c[nH]c2ccccc12)C(=O)NCCO)C(C)C)C(C)C)C(C)C)C(C)C` [compound 2212] (For-VGA[dV]A[dL]V[dL]W[dV]W[dV]W[dV]W-NHCH2CH2OH), the cell viability/% [1] is reported as 11.5%, the antibacterial activity [2] is reported as “+” and the “H+/Na+ transport activity normalized” value [3] is reported as 1.18.

In the case of `CNC(=O)C[C@@H](NC(=O)[C@@H](NC(=O)[C@H](NC(=O)[C@H](C)NC(=O)[C@H](NC(=O)[C@H](C)NC(=O)CNC(=O)[C@@H](NC=O)C(C)C)C(C)C)C(C)C)C(C)C)C(=O)N[C@@H](Cc1c[nH]c2ccccc12)C(=O)N[C@H](CC(C)C)C(=O)N[C@@H](Cc1c[nH]c2ccccc12)C(=O)N[C@H](CC(C)C)C(=O)N[C@@H](Cc1c[nH]c2ccccc12)C(=O)N[C@H](CC(C)C)C(=O)N[C@@H](Cc1c[nH]c2ccccc12)C(=O)NCCO` [compound 2218] (For-VGA[dV]A[dV]V[dD](NHMe)W[dL]W[dL]W[dL]W-NHCH2CH2OH), the cell viability/% [1] is reported as 100.0%, the antibacterial activity [2] is reported as “-” and the “H+/Na+ transport activity normalized” value [3] is reported as 1.32.

For `CC(C)C[C@@H](NC(=O)[C@H](C)NC(=O)CNC(=O)[C@@H](NC=O)C(C)C)C(=O)N[C@@H](C)C(=O)N[C@@H](C(=O)N[C@H](C(=O)N[C@@H](C(=O)N[C@@H](Cc1c[nH]c2ccccc12)C(=O)N[C@H](CC(C)C)C(=O)N[C@@H](Cc1c[nH]c2ccccc12)C(=O)N[C@H](CC(C)C)C(=O)N[C@@H](Cc1c[nH]c2ccccc12)C(=O)N[C@@H](C(=O)N[C@@H](Cc1c[nH]c2ccccc12)C(=O)NCCO)C(C)C)[C@H](C)O)C(C)C)C(C)C` [compound 2235] (For-VGA[dL]A[dV]V[dT]W[dL]W[dL]W[dV]W-NHCH2CH2OH), the cell viability/% [1] was 100.0%, the antibacterial activity [2] was “+” and the “H+/Na+ transport activity normalized” value [3] was 1.01.
